Experimental data as given in US9765075B2, “Substituted bridged urea analogs as sirtuin modulators” (GLAXOSMITHKLINE LLC, priority 2013, dated 2017).
Like-named read-outs stand apart in the source and are kept apart here.

Target: T1, SIRT1 (Homo sapiens, UniProt Q96EB6)
T1 sequence (Q96EB6 1-747): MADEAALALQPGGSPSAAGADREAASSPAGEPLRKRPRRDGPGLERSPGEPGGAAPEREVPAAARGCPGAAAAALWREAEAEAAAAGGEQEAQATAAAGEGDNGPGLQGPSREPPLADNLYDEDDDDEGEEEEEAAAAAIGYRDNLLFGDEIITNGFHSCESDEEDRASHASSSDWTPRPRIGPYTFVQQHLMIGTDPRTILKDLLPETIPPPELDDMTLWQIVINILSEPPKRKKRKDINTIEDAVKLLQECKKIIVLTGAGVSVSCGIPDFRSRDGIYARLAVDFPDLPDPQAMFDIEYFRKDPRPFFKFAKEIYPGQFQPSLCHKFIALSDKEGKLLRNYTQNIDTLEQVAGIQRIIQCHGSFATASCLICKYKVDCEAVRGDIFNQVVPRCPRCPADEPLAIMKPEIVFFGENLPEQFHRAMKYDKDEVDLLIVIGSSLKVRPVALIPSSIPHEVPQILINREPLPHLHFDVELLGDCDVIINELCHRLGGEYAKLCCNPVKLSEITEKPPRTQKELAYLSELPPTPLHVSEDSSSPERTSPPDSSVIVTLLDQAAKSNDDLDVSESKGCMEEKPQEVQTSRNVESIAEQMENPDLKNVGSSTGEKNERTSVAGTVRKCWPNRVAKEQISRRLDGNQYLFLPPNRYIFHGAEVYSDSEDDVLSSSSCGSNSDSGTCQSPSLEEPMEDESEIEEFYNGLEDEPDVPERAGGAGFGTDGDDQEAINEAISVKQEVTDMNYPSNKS
Experiment: Trp mass spectrometry assay (SIRT1 activation)
Assay type: biochemical
Conditions: for Emax: percent maximum fold activation of SIRT1, read-out: Tryp % Fold Act
Method in brief: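 Activation is expressed as EC1.5, the concentration raising activity 50% above DMSO control, and as maximum percent of control. Mass-spec readout was OAADPR or deacetylated Trp peptide after a formic-acid-quenched 25-min, 25 °C reaction: 10 nM bacterially expressed His-SIRT1, 0.5 μM acetyl-p53-derived peptide, 120 μM NAD+, pH 7.5 HEPES with […].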

[1] = concentration of test compound that results in 150% activation of SIRT1, Trp peptide substrate
[2] = Trp mass spectrometry assay, EC1.5 = concentration of test compound that results in 150% activation of SIRT1
[3] = Trp mass spectrometry assay, EC1.5 = concentration giving 150% activation of SIRT1

Compound | Tryp AVG EC1.5 (μM) [1] | Emax (Trp peptide substrate) | Emax (Trp mass spectrometry assay) | Tryp AVG EC1.5 (μM) [2] | Tryp AVG EC1.5 (μM) [3]
O=C(Nc1cnccn1)N1c2nc(-c3cncc(Cl)c3)ccc2N2CCC[C@H]1C2 [Example 417] | A (EC1.5<1 μM) | ≥ 150% |  |  | 
Cc1cc(C)nc(NC(=O)N2c3nc(N4CCCC(C(F)(F)F)C4)ccc3N3CCC[C@@H]2C3)c1 (stereo partly shown) [Example 301] | C (EC1.5>25 μM) | < 150% |  |  | 
Cc1cc2c(NC(=O)N3c4nc(-c5cccc(C(F)(F)F)c5)ccc4N4CC[C@H]3C4)cccc2nn1 [Example 86] |  |  | ≥ 150% |  | 
O=C(Nc1ccccn1)N1c2nc(-c3cccc(N4CC[C@H](F)C4)c3)ccc2N2CC[C@H]1C2 [Example 280] | A (EC1.5<1 μM) | ≥ 150% |  |  | 
COc1cncc(NC(=O)N2c3nc(-c4cccc(C#N)c4)ccc3N3CC[C@H]2C3)n1 [Example 190] |  |  | ≥ 150% | B (EC1.5 1-25 μM) | 
O=C(Nc1ccccn1)N1c2nc(-c3cccc(C(F)(F)F)c3F)ccc2N2CC[C@H]1C2 [Example 334] | B (EC1.5 1-25 μM) | ≥ 150% |  |  | 
O=C(Nc1cccc(C2=CCOCC2)n1)N1c2nc(-c3cccc(C(F)(F)F)c3)ccc2N2CC[C@H]1C2 [Example 658] |  |  | ≥ 150% |  | A (EC1.5<1 μM)
O=C(Nc1cnccn1)N1c2nc(-c3cccc(N4CCC(C(F)(F)F)C4)c3)ccc2N2CC[C@H]1C2 (stereo partly shown) [Example 319] | B (EC1.5 1-25 μM) | ≥ 150% |  |  | 
Cc1ccncc1-c1ccc2c(n1)N(C(=O)Nc1nc(C)c(C)s1)[C@H]1CCCN2C1 [Example 508] | C (EC1.5>25 μM) | ≥ 150% |  |  | 
O=C(Nc1cccc(-c2cnco2)c1)N1c2nc(-c3cccc(OC(F)(F)F)c3)ccc2N2CC[C@H]1C2 [Example 162] |  |  | ≥ 150% | A (EC1.5<1 μM) | 
O=C(Nc1ccccn1)N1c2nc(-c3cncc(C(F)(F)F)c3)ccc2N2C[C@@H](O)[C@H]1C2 [Example 694] |  |  | ≥ 150% |  | A (EC1.5<1 μM)
Cc1nc(NC(=O)N2c3nc(-c4cccc(C(F)(F)F)c4)ccc3N3C[C@@H](O)[C@H]2C3)sc1C [Example 699] |  |  | ≥ 150% |  | B (EC1.5 1-25 μM)
O=C(Nc1cncc(F)c1)N1c2nc(-c3cncc(C(F)(F)F)c3)ccc2N2C[C@@H](O)[C@H]1C2 [Example 691] |  |  | ≥ 150% |  | B (EC1.5 1-25 μM)
O=C(Nc1ccccn1)N1c2nc(-c3cc(F)cc(F)c3)ccc2N2CC[C@H]1C2 [Example 344] | A (EC1.5<1 μM) | ≥ 150% |  |  | 
O=C(Nc1nnc(-c2ccncc2)s1)N1c2nc(-c3cccc(C(F)(F)F)c3)ccc2N2CC[C@H]1C2 [Example 733] |  |  | ≥ 150% |  | A (EC1.5<1 μM)
O=C(Nc1cc(-c2cnco2)ccn1)N1c2nc(-c3cccc(C(F)(F)F)c3)ccc2N2CCC[C@H]1C2 [Example 591] | A (EC1.5<1 μM) | ≥ 150% |  |  | 
O=C(Nc1ccccn1)N1c2nc(-c3cccc(N4CCCC4)c3)ccc2N2CC[C@H]1C2 [Example 136] |  |  | ≥ 150% | A (EC1.5<1 μM) | 
COc1cc(NC(=O)N2c3nc(-c4cncc(F)c4)ccc3N3CCC2CC3)nc(OC)n1 [Example 578] | B (EC1.5 1-25 μM) | ≥ 150% |  |  | 
O=C(Nc1ccncn1)N1c2nc(-c3cncc(Cl)c3)ccc2N2CCC1CC2 [Example 576] | B (EC1.5 1-25 μM) | ≥ 150% |  |  | 
O=C(Nc1ccncn1)N1c2nc(C3CCCC(C(F)(F)F)C3)ccc2N2CC[C@H]1C2 (stereo partly shown) [Example 98] |  |  | ≥ 150% | B (EC1.5 1-25 μM) | 
O=C(Nc1cnccn1)N1c2nc(-c3cccc(Cl)c3)ccc2N2CC[C@H]1C2 [Example 101] |  |  | ≥ 150% | A (EC1.5<1 μM) | 
COc1cccc(-c2ccc3c(n2)N(C(=O)Nc2ccc(F)cn2)[C@@H]2CCN3C2)c1 [Example 205] |  |  | ≥ 150% | B (EC1.5 1-25 μM) | 
NC(=O)c1ccc(NC(=O)N2c3nc(-c4cccc(C(F)(F)F)c4)ccc3N3CC[C@H]2C3)cc1 [Example 659] |  |  | ≥ 150% |  | A (EC1.5<1 μM)
O=C1CN2C[C@H]1N(C(=O)Nc1cccc(-c3cnco3)c1)c1nc(-c3cccc(C(F)(F)F)c3)ccc12 [Example 692] |  |  | ≥ 150% |  | A (EC1.5<1 μM)

Compound | Tryp AVG EC1.5 (μM) [1] | Emax (Trp peptide substrate) | Emax (Trp mass spectrometry assay) | Tryp AVG EC1.5 (μM) [2] | Tryp AVG EC1.5 (μM) [3]
O=C(Nc1cnccn1)N1c2nc(N3CCCC(C(F)(F)F)C3)ccc2N2CCC[C@@H]1C2 (stereo partly shown) [Example 307] | B (EC1.5 1-25 μM) | ≥ 150% |  |  | 
O=C(NCc1ccc(NC(=O)N2c3nc(-c4cccc(C(F)(F)F)c4)ccc3N3CC[C@H]2C3)cc1)OC[C@@H]1[C@@H]2CCC#CCC[C@@H]21 [Example 796] |  |  | ≥ 150% |  | B (EC1.5 1-25 μM)
Cc1ccc(-c2ccc3c(n2)N(C(=O)Nc2cncc(F)c2)[C@H]2CCCN3C2)cn1 [Example 477] | B (EC1.5 1-25 μM) | ≥ 150% |  |  | 
CC(C)n1cc(-c2ccc3c(n2)N(C(=O)Nc2cccnc2)[C@H]2CCN3C2)cn1 [Example 494] | B (EC1.5 1-25 μM) | ≥ 150% |  |  | 
Cc1cc(NC(=O)N2c3nc(-c4cccc(C(F)(F)F)c4)ccc3N3CC[C@H]2C3)cc(Br)n1 [Example 540] | A (EC1.5<1 μM) | ≥ 150% |  |  | 
N#Cc1cncc(-c2ccc3c(n2)N(C(=O)Nc2cncc(F)c2)[C@H]2CCCN3C2)c1 [Example 535] | B (EC1.5 1-25 μM) | ≥ 150% |  |  | 
Cn1ccc(NC(=O)N2c3nc(-c4cccc(N5CCCC5)c4)ccc3N3CC[C@H]2C3)n1 [Example 208] |  |  | ≥ 150% | B (EC1.5 1-25 μM) | 
Cc1cc(C)nc(NC(=O)N2c3nc(-c4cccc(C(F)(F)F)c4)ccc3N3CC[C@H]2C3)c1 [Example 13] |  |  | ≥ 150% |  | 
O=C(Nc1cc(OCC(O)CO)ccn1)N1c2nc(-c3cccc(C(F)(F)F)c3)ccc2N2CC[C@H]1C2 (stereo partly shown) [Example 53] |  |  | ≥ 150% |  | 
Cc1nc(C)c(-c2ccc3c(n2)N(C(=O)Nc2cccnc2)[C@H]2CCN3C2)s1 [Example 495] | B (EC1.5 1-25 μM) | ≥ 150% |  |  | 
O=C(Nc1ccc(F)cn1)N1c2nc(-c3cccc(OC[C@@H](O)CO)c3)ccc2N2CC[C@H]1C2 [Example 146] |  |  | ≥ 150% | B (EC1.5 1-25 μM) | 
O=C(Nc1cnccn1)N1c2nc(-c3cncc(F)c3)ccc2N2CCC[C@H]1C2 [Example 432] | B (EC1.5 1-25 μM) | ≥ 150% |  |  | 
COc1cc(NC(=O)N2c3nc(-c4cccc(OC[C@@H](O)CO)c4)ccc3N3CC[C@H]2C3)ncn1 [Example 156] |  |  | ≥ 150% | A (EC1.5<1 μM) | 
CN(C)[C@H]1CCN(c2ccc3c(n2)N(C(=O)Nc2cncc(F)c2)[C@H]2CCN3C2)C1 [Example 244] | B (EC1.5 1-25 μM) | ≥ 150% |  |  | 
O=C(Nc1cccnn1)N1c2nc(-c3cccc(C(F)(F)F)c3)ccc2N2CCC[C@@H]1C2 [Example 196] |  |  | ≥ 150% | B (EC1.5 1-25 μM) | 
COc1cc(NC(=O)N2c3nc(-c4cccc(Cl)c4)ccc3N3CCC2CC3)ncn1 [Example 522] | B (EC1.5 1-25 μM) | ≥ 150% |  |  | 
Cc1ccc(-c2ccc(NC(=O)N3c4nc(-c5cccc(C(F)(F)F)c5)ccc4N4CC[C@H]3C4)cc2)o1 [Example 582] | B (EC1.5 1-25 μM) | ≥ 150% |  |  | 
Cc1cncc(-c2ccc3c(n2)N(C(=O)Nc2ccccn2)[C@H]2CCN3C2)c1 [Example 325] | A (EC1.5<1 μM) | ≥ 150% |  |  | 
O=C(Nc1cccc(-c2cnco2)c1)N1c2nc(-c3cccc(C(F)(F)F)c3)ccc2N2CCC1CC2 [Example 473] | A (EC1.5<1 μM) | ≥ 150% |  |  | 
O=C(Nc1ccncc1F)N1c2nc(N3CCCC(C(F)(F)F)C3)ccc2N2CCC[C@H]1C2 (stereo partly shown) [Example 291] | B (EC1.5 1-25 μM) | ≥ 150% |  |  | 
O=C(Nc1ccccn1)N1c2nc(-c3cccc(OC[C@@H](O)CO)c3)ccc2N2CC[C@H]1C2 [Example 155] |  |  | ≥ 150% | B (EC1.5 1-25 μM) | 
CC1(CCC(=O)NCc2ccc(NC(=O)N3c4nc(-c5cccc(C(F)(F)F)c5)ccc4N4CC[C@H]3C4)cc2)N=N1 [Example 548] | B (EC1.5 1-25 μM) | ≥ 150% |  |  | 
O=C(Nc1cccnn1)N1c2nc(-c3cncc(C(F)(F)F)c3)ccc2N2C[C@@H](O)[C@H]1C2 [Example 701] |  |  | ≥ 150% |  | B (EC1.5 1-25 μM)
